Holding throughout (format): in vivo
Experiment [1] deals with alopecurius myosuirides (ALOMY). As to the kind of experiment: Adjuvant with herbicide pinoxaden on ALOMY. The following applies: 14 and 21 days. The protocol:
(§1) In this example Sample 13 from Table 1 was compared to the oil adjuvant blend Turbocharge™. The herbicide fomesafen was applied to the weed species xanthium strumarium (XANST), setaria viridis (SETVI), abutilon theophrasti (ABUTH), and chenopodium album (CHEAL) at rates of 60 or 120 grams per hectare, using a laboratory track sprayer. Each experiment was replicated four times and the percentage damage to the weeds was assessed visually at time periods of 7, 14 and 21 days after application. Each adjuvant was applied at a rate of 0.5% of the volume of the spray water. Four effects were evaluated: pesticide rate (2 levels), adjuvant type (two levels), weed species (four levels) and days after application (three levels). […] The effect of each adjuvant was pulled out from the model and the least significant differences evaluated using a Student's t method. […]
(§2) In this example the responses of the adjuvants 13, 17, 19, 21, 22 and 23 were measured at an application rate of 0.2% of the volume of the spray solution used. […] In each case the experiments were replicated four times and the percentage damage to the weeds was assessed visually at time periods of 14 and 21 days after application.
(§3) In this example the response of butylene oxide sample 27 of Table 1 was measured at an application rate of 0.2% of the volume of the spray solution used. […]

In experiment [2] the test system is lolium perenne (LOLPE), alopecurius myosuirides (ALOMY), setaria viridis (SETVI), avena fatua (AVEFA). Kind of experiment: Adjuvant with herbicide pinoxaden, track sprayer, mean across four weed species. The note with it: pinoxaden 7.5 or 15 g/ha, 14 and 21 days.
In experiment [3] the test system is setaria viridis (SETVI). As to the kind of experiment: Adjuvant with herbicide nicosulfuron on SETVI. The following applies: nicosulfuron 30 or 60 g/ha; adjuvants 0.2% of spray water; 14 and 21 days after application. The protocol:
as §1
In this example the butylene oxide adjuvant Sample 13 of Table 1 was compared to the commercial oil adjuvant blend Atplus™411F. […] Each experiment was replicated four times and the percentage damage to the weeds was assessed visually at time periods of 14 and 21 days after application. […]
In this example the responses of the butylene oxide adjuvants 13, 17, 19, 21, 22 and 23 of Table 1 were measured at an application rate of 0.2% of the volume of the spray solution used. […]

Experiment [4] deals with lolium perenne (LOLPE). As to the kind of experiment: Adjuvant with herbicide pinoxaden on LOLPE. The following applies: 14 and 21 days. The protocol: In this example the response of the butylene oxide adjuvant 13 of Table 1 was measured at an application rate of 0.2% of the volume of the spray solution used. It was compared to the adjuvant tris 2-ethylhexyl phosphate [TEHP], which was applied at the higher rate of 0.5% by volume. The herbicide pinoxaden was applied at rates of 7.5, 11.25 or 15 grams per hectare by a laboratory track sprayer to the weed species lolium perenne (LOLPE), alopecurius myosuirides (ALOMY), and avena fatua (AVEFA). In each case the experiments were replicated four times and the percentage damage to the weeds was assessed visually at time periods of 14 and 21 days after application.

Experiment [5] has as its system avena fatua (AVEFA). As to the kind of experiment: Adjuvant with herbicide pinoxaden on AVEFA. The note with it: 14 and 21 days. How it is done: as §1, §2, §3
The mark [6] stands for this setting: pinoxaden 7.5, 11.25 or 15 g/ha, Sample 13 0.2%, TEHP 0.5%.
Setting [7] is: pinoxaden 7.5 or 15 g/ha, butylene oxide adjuvants 0.2%, TEHP 0.5% v/v.

These results are taken from US20120172228A1, “ALCOHOL ALKOXYLATES AS ADJUVANTS FOR AGROCHEMICAL FORMULATIONS” (SYNGENTA CROP PROTECTION, LLC, priority 2009, published 2012).

Structures are written as SMILES.

Regarding `CCCCC(CC)COP(=O)(OCC(CC)CCCC)OCC(CC)CCCC` (stereo not drawn) [TEHP, tris 2-ethylhexyl phosphate], the “mean efficacy (percentage damage to the weeds), ALOMY” value in experiment [1] (setting [6]) was 43.33; A %; in experiment [1] (setting [7]), 68.75; AB %. In addition, in experiment [2] (Sample 28 0.2%, TEHP 0.5%), the “Mean kill (%)” value was determined as 92.6%. In addition, the “mean efficacy (percentage damage to the weeds), All weeds” value in experiment [2] (butylene oxide adjuvants 0.2%, TEHP 0.5% v/v) was 75.63; A %. Besides, in experiment [3], the “mean efficacy (percentage damage to the weeds), SETVI” value is recorded as 77.08; A %. For the same compound, the results for the “mean efficacy (percentage damage to the weeds), LOLPE” value in experiment [4] (setting [6]) and in experiment [4] (setting [7]) were 58.06; A % and 82.5; A %, respectively. In addition, the “mean efficacy (percentage damage to the weeds), AVEFA” value is recorded as 78.33; A % in experiment [5] (setting [6]) and 73.75; AB % in experiment [5] (setting [7]).
